Like-named read-outs stand apart in the source and are kept apart here.
Experiments:
[1] = Single dose pharmacokinetics (PK) study in female BALB/c mice; type: in vivo, mouse
Description: The purpose of this study was to determine the pharmacokinetics of selected compounds following single intravenous bolus or oral gavage administration in female BALB/c mice. Briefly, two groups of female BALB/c mice (available from Shanghai Lingchang Biotechnology Co., Ltd) (N=3/group) were treated with a single dose of compound intravenously at 3 mg/kg (IV) or orally at 30 mg/kg (PO). Blood samples were collected at 5 min (only for IV), […], 30 min, 1 h, 2 h, 4 h, 7 h and 24 h post-dose. Blood samples were placed on ice until centrifugation to obtain plasma samples. The concentration of compound in plasma samples was determined using LC-MS/MS method. The pharmacokinetic parameters were calculated by non-compartmental analysis.

[2] = system: DUSP6; assay: SHP-77 xenograft single-dose PK/PD study, tumor DUSP6 levels; type: in vivo, mouse; conditions: single oral dose of 30 mg/kg
Text: The purpose of the study was to assess the anti-tumor activity in difficult KRAS mutated xenograft tumor model using SHP-77 (small cell lung cancer, SCLC; ATCC CRL-2195) by examining the time-dependent effects on MAPK pathway modulation and tumor suppression post-administration of Example 24 and reference compound A122.
Female CB17-SCID mice at 6-8 weeks old from Vital River Co., LTD. were used for these studies. In order to generate subcutaneous xenograft tumors, each mouse was inoculated at the right flank with tumor cells in 100 μL of PBS and Matrigel matrix in the right hind flank with 1×10^7 cells. Mouse health was monitored daily, and caliper measurements began when tumors were palpable. Tumor volume measurements were determined utilizing the formula 0.5×L×W^2 in which L refers to length and W refers to width of each tumor. When tumors reached an average tumor volume of approximately 100-200 mm^3 for efficacy study and 300-500 mm^3 for single-dose PK/PD study, mice were randomized into treatment groups.
Mice were treated by oral gavage at 10 mg/kg with either vehicle consisting of DMSO: Solutol HS15: water=10:10:80 (% v/v/v) or compounds (Example 24, A122) in vehicle at indicated doses. For efficacy studies, animals were orally administered daily, tumor volumes and body weights were measured 3 times per week. Study day on efficacy plots indicates the day after which compound treatment was initiated. For single-dose PK/PD study, at the indicated time points after a single dose of Example 24 at the indicated dose levels, tumor samples were collected for PD analysis. RNA extraction and analysis of DUSP6 levels by in tumor tissue were performed as described in Example 134.

[3] = system: panel of 119 human cancer cell lines with RAS mutations or amplifications; assay: Cell proliferation analysis, panel of 119 human cancer cell lines; type: cell-based; conditions: RAS addicted cell panels (n=119), read-out: median IC50
Description: The objective of this study was to evaluate the extent and degree to which Example 24 or A122 inhibits cell proliferation in a panel of 119 human cancer cell lines with RAS mutations or amplifications across various histological subtypes.
On Day-1, cells were plated in 384-well round-bottom ultra-low adhesion plates (cat. Corning 3830, with cell density adjusted according to Table 3. The assay plate was then centrifuged at 1000 rpm for 1 minute to ensure even distribution of cells. The plate was incubated at 37° C. in a 5% CO2 atmosphere (It is worth noting that for SW1271 cell plate, it needs to be incubated in an incubator without additional CO2).
On Day 0, Example 24 or A122 was added to each well using a Tecan HP D300E dispenser, with a 3-fold dilution across 9 doses. The final concentration of DMSO was normalized to 0.2%. The assay plate was then centrifuged at 1000 rpm for 1 minute and incubated for 7 days.
On Day 7, CellTiter-Glo (CTG) 3D reagent (Promega G9683) was dispensed into each well of a 384-well plate using a multi-drop dispenser (Thermo Scientific 66413). […]
For data analysis, the XL-fit software (Supplier: ID Business Solutions Ltd., Software version: XL fit 5.0) was utilized. The percentage of inhibition was calculated using the formula: Inhibition %=(Max-Sample value)/(Max-Min)×100. […]

[4] = target: WT NRAS-BRAF complex (Homo sapiens (Human), UniProt P01111+P62937); assay: WT NRAS-BRAF with CYPA interaction assay (TR-FRET); type: biochemical; conditions: WT NRAS
Description: In this example, TR-FRET was used to measure the compound or compound-CYPA dependent disruption of the KRAS G12V-BRAF complex to assess inhibition efficacy. The IC50 ratio between WT KRAS/HRAS/NRAS and KRAS G12V mutant was calculated as selective index, which indicated tolerability and safety profile. Disruption of WT KRAS/HRAS/NRAS-BRAF complex by compounds was detected respectively. In assay buffer containing 25 mM HEPES (PH-7.4,4-(2-hydroxyethyl)-1-piperazineethanesulfonic acid, Thermo, 15630080), 0.002% Tween20, 0.1% BSA, 100 mM NaCl, 5 mM MgCl2, 10 μM GMPPNP (Guanosine 5′-[β,γ-imido]triphosphate trisodium salt hydrate, Sigma, G0635), tagless CYPA and GMPPNP loaded 6His-RAS proteins, and GST-BRAF^RBD were mixed in a well of a 384-well assay plate at final concentrations of 50 nM, 6.25 nM and 1 nM, respectively. Compound was present in plate wells as a 16-point 3-fold dilution series starting at a final concentration of 10 μM and incubated for 3 hours. A mixture of MAb Anti-6His-XL665 (Cisbio, 61HISXLB) and Mab anti-GST-TB cryptate (Cisbio, 61GSTTLB) was then added at a final concentration of 6.67 nM and 0.21 nM, respectively, and the plate was incubated for an additional 1.5 hours. TR-FRET signal was read on a PHERstar FSX microplate reader (Ex320 nm, Em 665/615 nm). Compounds that facilitate disruption of the RAS-BRAF complex were identified as those eliciting a decrease in the TR-FRET ratio relative to DMSO control wells.

[5] = 30 mg/kg, po, female BALB/c mice

Sequence of WT NRAS-BRAF complex (P01111 whole entry, looked up): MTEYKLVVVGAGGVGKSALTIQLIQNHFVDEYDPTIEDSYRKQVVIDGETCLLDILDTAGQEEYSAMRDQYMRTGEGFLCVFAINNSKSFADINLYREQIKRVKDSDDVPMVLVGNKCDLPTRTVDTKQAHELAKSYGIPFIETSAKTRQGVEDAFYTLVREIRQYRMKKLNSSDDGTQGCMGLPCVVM
Sequence of WT NRAS-BRAF complex (P62937 whole entry, looked up): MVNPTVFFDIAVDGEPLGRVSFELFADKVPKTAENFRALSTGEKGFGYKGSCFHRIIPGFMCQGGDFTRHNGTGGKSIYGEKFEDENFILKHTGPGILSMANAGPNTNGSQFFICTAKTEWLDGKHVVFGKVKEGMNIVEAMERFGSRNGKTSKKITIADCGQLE

In the case of `CO[C@@H](C)c1ncc(N2CCN(C)CC2)cc1-c1c2c3cc(cc4c3n1CCC4)-c1csc(n1)C[C@H](NC(=O)[C@H]1[C@H](C)[C@@H]1C)C(=O)N1CCC[C@H](N1)C(=O)OCC(C)(C)C2` (atropisomer, axis not shown; (M)) [Example 24, (1r,2R,3S)-N-[(7S,13S)-(20M)-20-[2-[(1S)-1-methoxyethyl]-5-(4-methylpiperazin-1-yl)-3-pyridyl]-17,17-dimethyl-8,14-dioxo-15-oxa-4-thia-9,21,30,31-tetrazahexacyclo[23.3.1.1^2,5.1^9,13.0^19,27.0^21,26]hentriaconta-1 (28),2,5 (31), 19,25 (29),26-hexaen-7-yl]-2,3-dimethyl-cyclopropanecarboxamide], the CL ([1]; 3 mg/kg, iv, female BALB/c mice) is reported as 0.318 L/h/kg, the AUC0-last [1, 5] is reported as 57.24 µg·h/mL and the Cmax [1, 5] is reported as 10.498 µg/mL. The “fold increase in AUC0-last compared with compound A122” value ([1]; 30 mg/kg, po, mouse) was 6 fold, the “fold increase in AUC0-last compared with compound A252” value ([1]; 30 mg/kg, po, mouse) was 4 fold and the “fold increase in Cmax compared with compound A122” value ([1]; 30 mg/kg, po, mouse) was ~4 fold. The “fold increase in Cmax compared with compound A252” value ([1]; 30 mg/kg, po, mouse) was 4.3 fold, the “tumor DUSP6 levels remaining” value ([2]; 24 h) was 3.9% and the “tumor DUSP6 levels remaining” value ([2]; 48 hours) was 31%. The “tumor DUSP6 levels remaining” value ([2]; 72 hours) was 73.7%, the IC50 [3] was 0.95 nM and the IC50 [4] was 35 nM.

Compound `CCn1c(-c2cc(N3CCN(C)CC3)cnc2[C@H](C)OC)c2c3cc(ccc31)-c1csc(n1)C[C@H](NC(=O)[C@H]1C[C@@H]1C)C(=O)N1CCC[C@H](N1)C(=O)OCC(C)(C)O2` [Example A122, reference compound] has a clearance ([1]; female, BALB/c, mouse, plasma, iv, 3 mg/kg, female BALB/c mice) of 2.03 L/h/kg, an AUC(0-t) ([1]; female, BALB/c, mouse, plasma, po, 30 mg/kg, female BALB/c mice) of 9.76 µg·h/mL and a Cmax ([1]; female, BALB/c, mouse, plasma, po, 30 mg/kg, po, female BALB/c mice, read-out: Cmax) of 2.53 µg/mL. For the same compound, the “tumor DUSP6 levels remaining” value ([2]; 24 h) was 4.3%, the “tumor DUSP6 levels remaining” value ([2]; 48 hours) was 67% and the “tumor DUSP6 levels remaining” value ([2]; 72 hours) was 126%. It also gave an IC50 [3] of 1.9 nM and an IC50 [4] of 10 nM.
